From ChEMBL document CHEMBL1157048, “Synthesis and in vitro activity of limonene derivatives against Leishmania and Trypanosoma” (Eur J Med Chem, 2010)

Legend:
Leishmania braziliensis = experiment: Antileishmanial activity against Leishmania (Viannia) braziliensis promastigotes; assay type: functional, organism-based
Trypanosoma cruzi [1] = experiment: Antitrypanosomal activity against Trypanosoma cruzi Tulahuen 2 assessed as inhibition of epimastigotes growth at 50 uM; assay type: functional; conditions: read-out: GI
Leishmania sp. = experiment: Antileishmanial activity against Leishmania sp. by MTT assay; assay type: functional, organism-based
Trypanosoma cruzi [2] = experiment: Antitrypanosomal activity against Trypanosoma cruzi Tulahuen 2 assessed as inhibition of epimastigotes growth; assay type: functional, organism-based
[3] = Selectivity index, ratio of IC50 for rhesus monkey LLC-MK2 cells to IC50 for Trypanosoma cruzi Tulahuen 2 epimastigotes; assay type: toxicity, cell-based; conditions: read-out: Ratio IC50
[4] = Selectivity index, ratio of IC50 for rhesus monkey LLC-MK2 cells to IC50 for Leishmania (Viannia) braziliensis promastigotes; assay type: toxicity, cell-based; conditions: read-out: Ratio IC50
Leishmania amazonensis = experiment: Antileishmanial activity against Leishmania amazonensis promastigotes after 48 hrs; assay type: functional, organism-based
[5] = Selectivity index, ratio of IC50 for rhesus monkey LLC-MK2 cells to IC50 for Leishmania amazonensis promastigotes; assay type: toxicity, cell-based; conditions: read-out: Ratio IC50
LLC-MK2 = experiment: Cytotoxicity against rhesus monkey LLC-MK2 cells after 48 hrs; assay type: cell-based; conditions: Macaca mulatta, LLC-MK2, 48 h

Row | SMILES | IC50 (Leishmania braziliensis) [µM] | inhibition of growth at 50 µM (Trypanosoma cruzi [1]) [%] | IC50 (Trypanosoma cruzi [2]) [µM] | also measured
1 | CC1=CC[C@H](C(C)CCNc2ccc(C)cc2)CC1 (mixture of isomers) | 28 | – | – | –
2 | CC1=CC[C@H](C(C)CCNc2ccccn2)CC1 (some centres undefined) | 27 | – | – | –
3 | CC1CS(=O)(=O)CCN1/N=C/c1ccc([N+](=O)[O-])o1 (centres undefined) [NIFURTIMOX] | – | 100 | – | –
4 | C=C(C)[C@H]1CC=C(C)CC1 [D-LIMONENE] | 876 | 0 | > 50 | IC50 (Leishmania sp.): 185 µM
5 | CC1=CC[C@H](C(C)CCNc2ccc(Cl)cc2)CC1 (mixture of isomers) | 58.4 | – | – | –
6 | CC1=CC[C@H](C(C)CCN2CCOCC2)CC1 (mixture of isomers) | 1030 | 20.7 | > 50 | –
7 | CC1=CC[C@H](C(C)CCN2CCNCC2)CC1 (mixture of isomers) | 270 | 82.4 | 19.2 | –
8 | CC1=CC[C@H](C(C)CCNCc2ccco2)CC1 (mixture of isomers) | 35.6 | 51.4 | 50 | –
9 | CC1=CC[C@H](C(C)CCN(C)c2ccccc2)CC1 (mixture of isomers) | 54.5 | 0 | > 50 | –
10 | CC1=CC[C@H](C(C)CCNc2ccccc2)CC1 (mixture of isomers) | 11.5 | 70.5 | 29.5 | selectivity ratio [3]: 10.4; selectivity ratio [4]: 10; IC50 (Leishmania amazonensis): 89.8 µM; selectivity ratio [5]: 3.5; IC50 (LLC-MK2): 312 µM
11 | COc1ccc(NCCC(C)[C@H]2CC=C(C)CC2)cc1 (mixture of isomers) | 57.6 | – | – | –
12 | CC1=CC[C@H](C(C)CCNC(C)C)CC1 (mixture of isomers) | 254 | – | – | –
13 | CCCNCCC(C)[C@H]1CC=C(C)CC1 (mixture of isomers) | 17.2 | 21 | > 50 | selectivity ratio [4]: 10; IC50 (Leishmania amazonensis): 53.5 µM; selectivity ratio [5]: 3.6; IC50 (LLC-MK2): 192 µM
14 | CC1=CC[C@H](C(C)CCNc2cccc(C(F)(F)F)c2)CC1 (mixture of isomers) | 84.6 | – | – | –
15 | CC1=CC[C@H](C(C)CCNCc2ccccc2)CC1 (mixture of isomers) | 258 | 53.5 | 50 | –
16 | N=C(N)c1ccc(OCCCCCOc2ccc(C(=N)N)cc2)cc1 [PENTAMIDINE] | 48.5 | – | – | –
17 | CC1=CC[C@H](C(C)CCNCCO)CC1 (mixture of isomers) | 23.2 | 41.8 | > 50 | selectivity ratio [4]: 10; IC50 (Leishmania amazonensis): 174 µM; selectivity ratio [5]: 3.4; IC50 (LLC-MK2): 587 µM
18 | CCCN(CCC(C)[C@H]1CC=C(C)CC1)S(=O)(=O)c1ccc(C)cc1 (mixture of isomers) | 12.1 | – | – | selectivity ratio [4]: 10; IC50 (Leishmania amazonensis): 196 µM; selectivity ratio [5]: > 5.2; IC50 (LLC-MK2): > 1010 µM
